From ChEMBL document CHEMBL5329179, “Inhibitory effect of γ-ray-modified hydroxymethylated baicalins on NO production” (Bioorg Med Chem Lett, 2023)
Values after ≈ are worked out from the molar mass of the structure shown. Active and inactive are the calls of the source. No cut-off for these calls is given here.

How the values were obtained:
Type in all cases: functional, cell-based
RAW264.7 [1] = assay: Antiinflammatory activity against LPS-stimulated mouse RAW264.7 cells assessed as reduction in NO production
RAW264.7 [2] = assay: Antiinflammatory activity against LPS-stimulated mouse RAW264.7 cells assessed as reduction in iNOS mRNA expression level at 20 uM by qRT-PCR analysis
[3] = Antiinflammatory activity against LPS-stimulated dog DH82 cells assessed as reduction in NO production; conditions: Canis lupus familiaris
DH82 = assay: Antiinflammatory activity against LPS-stimulated dog DH82 cells assessed as reduction in iNOS mRNA expression level at 20 uM by qRT-PCR analysis; conditions: Canis lupus familiaris
RAW264.7 [4] = assay: Antiinflammatory activity against mouse RAW264.7 cells assessed as reduction in NO production compound photoirradiated using 50 kGy gamma-ray; conditions: RAW264.7, light or radiation study

| SMILES | IC50 (RAW264.7 [1]) [µM] | IC50 [3] [µM] | IC50 (RAW264.7 [4]) [µg/mL] | Activity (RAW264.7 [2]) | Activity (DH82) |
| --- | --- | --- | --- | --- | --- |
| N=C(N)NN [PIMAGEDINE] | 24.5 | 21 | – | – | – |
| O=C1C[C@](CO)(c2ccccc2)Oc2cc3c(c(O)c21)OOC3 | > 200 | > 200 | – | – | – |
| COc1c(O)cc2oc(-c3ccccc3)cc(=O)c2c1O [OROXYLIN A] | 48.9 | 50.6 | – | – | – |
| O=C(O)[C@H]1O[C@@H](Oc2cc3oc(-c4ccccc4)cc(=O)c3c(O)c2O)[C@H](O)[C@@H](O)[C@@H]1O [BAICALIN] | 157 | > 200 | 35.2 (≈ 78.9 µM) | Active | Active |
| O=c1cc(-c2ccccc2)oc2cc(O)c(O)c(O)c12 [BAICALEIN] | 30.4 | 31.2 | – | – | – |
| O=C(O)[C@H]1O[C@@H](Oc2cc3c(c(O)c2O)C(=O)[C@@H](CO)[C@](CO)(c2ccccc2)O3)[C@H](O)[C@@H](O)[C@@H]1O | 68 | 57.5 | – | – | – |

Second part, led by results:

| IC50 (RAW264.7 [1]) [µM] | IC50 [3] [µM] | IC50 (RAW264.7 [4]) [µg/mL] | SMILES | Activity (RAW264.7 [2]) | Activity (DH82) |
| --- | --- | --- | --- | --- | --- |
| 22.7 | 24.9 | – | O=C1C[C@](CO)(c2ccccc2)Oc2cc(O[C@@H]3O[C@H](C(=O)O)[C@@H](O)[C@H](O)[C@H]3O)c(O)c(O)c21 | Active | Active |
| 18.9 | 19.1 | – | O=C1C[C@@](CO)(c2ccccc2)Oc2cc(O[C@@H]3O[C@H](C(=O)O)[C@@H](O)[C@H](O)[C@H]3O)c(O)c(O)c21 | Active | Active |
